Test results from patent US5508419A, “Substituted triazoles as angiotensin II inhibitors” (Ortho Pharmaceutical Corporation, priority 1994, dated 1996).

Columns and labels:
[1] = target: T1, angiotensin II receptor (angiotensin II-induced vasoconstriction in in vitro aortic rings) (Oryctolagus cuniculus, UniProt P34976); experiment: Inhibition of Angiotensin II Dose-Response in Rabbit Thoracic Aorta; format: cell-based, rabbit (New Zealand white); details: for Kb / pA2: rabbit thoracic aorta, negative logarithm of antagonist concentration causing 2-fold shift to the right of agonist potency; for Kb: read-out: pA2 (converted); for inhibition at 10 µM: read-out: % Inhib. @ 10 uM
T1 construct: thoracic aorta gently dissected free from the aortic root to the level of the diaphragm; from tissue; host or cells: rabbit (New Zealand white) thoracic aorta rings
T1 sequence (P34976 1-359): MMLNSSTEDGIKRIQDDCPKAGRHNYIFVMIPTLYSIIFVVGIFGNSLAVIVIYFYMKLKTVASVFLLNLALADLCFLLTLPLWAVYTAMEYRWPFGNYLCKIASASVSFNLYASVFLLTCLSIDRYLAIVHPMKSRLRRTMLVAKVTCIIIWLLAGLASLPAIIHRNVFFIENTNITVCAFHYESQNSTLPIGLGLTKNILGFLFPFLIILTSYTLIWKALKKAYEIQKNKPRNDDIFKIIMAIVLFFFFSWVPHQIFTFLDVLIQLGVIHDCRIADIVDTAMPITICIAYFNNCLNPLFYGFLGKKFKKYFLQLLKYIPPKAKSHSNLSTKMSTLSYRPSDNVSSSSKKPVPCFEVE
Description: Inhibition of Angiotensin II Dose-Response in Rabbit Thoracic Aorta
Purpose: To identify competitive receptor antagonists of an angiotensin II-activity, 1 activity i.e., angiotensin II-induced vasoconstriction in in vitro aortic rings.
Procedure: 1.8 to 2.3 kg New Zealand white rabbits are sacrificed with an intravenous sodium pentobarbital overdose and the thoracic aorta gently dissected free from the aortic root to the level of the diaphragm, into ice cold Krebs bicarbonate buffer. The aorta is gently freed of clots and adventitia and cleanly cut with a scalpel into 5 mm segments. Each dng is suspended from a Gould isotonic force transducer in a tissue bath containing 15 mL oxygenated Krebs bicarbonate buffer regulated at 37° C. Initial tension is adjusted to 4.0 g and equilibrated over three 20-min wash periods to achieve a baseline tension of 3.0 g. Graded angiotensin II doses are given cumulatively to achieve a maximal contraction. Three 20-min washes are pedormed to remove the initial angiotensin II effect. The test compound is then given at a screening concentration of 1.0×10^-5 M. After observing any effects of the test compound alone, the angiotensin II cumulative dose-response is then repeated in the presence of the test compound.
Analysis: Angiotensin II vasoconstdctor tension in grams is expressed as a percent of maximal contraction for the before and after test compound angiotensin II dose-responses. Angiotensin II ED50 and ED90 is determined from the angiotensin II dose-response curves generated before and after test compound.
Controls: Test compounds are dissolved in DMSO vehicle and DMSO vehicle alone is tested in two rings as a vehicle control in each screening experiment.
pA2 is the negative logarithm of the antagonist concentration that causes a 2-fold shift to the right (i.e. decrease) in the potency of the agonist or the negative logarithm of the antagonist concentration that cuts the potency of the agonist in half.

[2] = tested on: plasma renin activity; experiment: Plasma renin activity (PRA, RIA) in salt-depleted rats; format: in vivo, rat (Sprague-Dawley); details: after DuP-753 treatment of salt-depleted rats, 0.7 before and about 7.4 after salt depletion
[3] = tested on: angiotensin II receptor; experiment: Screening Potential Angiotensin II Receptor Antagonists in Salt-Depleted Normotensive Rats (blood pressure); format: in vivo, rat (Sprague-Dawley)
Procedure: Method; Male 350-450 g Sprague-Dawley rats are implanted with teflon microcannulae via the middle caudal artery under 20 mg/kg intravenous brevital anesthesia and permitted a 4-7 day surgical recovery period. Throughout recovery and testing animals are individually housed unrestrained in standard rat metabolism cages and receive continuous 0.5 ml/h intra-arterial 0.25N saline infusion through a spring-shielded swivelling tether connected to an infusion/blood pressure recording system to maintain arterial cannula patency. […] […] Three hours after the second furosemide dose, rats are given test compound uniformly suspended in 1% methylcellulose (n=3/dose level) or 1 mL 1% methylcellulose vehicle (n=3) orally by gavage and blood pressure is continuously recorded for 24 h using a Buxco computerized data recording system. Compound-induced changes in blood pressure are compared to concurrent vehicle control blood pressures in order to detect drug effect.
Interpretation: Prior to salt depletion, normotensive rats typically show a plasma renin activity (PRA, ng angiotensin I/mL plasma/h, RIA) of 0.7. After the salt-depletion protocol PRA values taken 3 h after the furosemide dose have risen to about 7.4.
Compounds that decrease blood pressure 10 or more mmHg (MAP) compared to concurrent control after oral dosing are considered active in this test. Maximum possible response is about -35 mmHg. […]

| Compound | Kb [1] | inhibition at 10 µM [1] | also measured |
| --- | --- | --- | --- |
| CC(C)Cc1nc(SCc2ccc(-c3ccccc3C(=O)O)cc2)nn1Cc1ccc(-c2ccccc2C(=O)O)cc1 [Compound 4, Sodium 5-isobutyl-1,3-bis-[4-(2'-carboxyphenyl)benzyl]mercapto-1,2,4-triazole] | 32.4 nM | 100% | – |
| CCCCc1nc(SCc2ccc(-c3ccccc3C(=O)O)cc2)nn1Cc1ccc(-c2ccccc2C(=O)O)cc1 [Compound 2, Disodium 5-Butyl-1,3-bis-[4-(2'-carboxyphenyl)benzyl]mercapto-1,2,4-triazole] | 3.24 nM | 100% | – |
| CCCCCCc1nc(SCc2ccc(-c3ccccc3C(=O)OC)cc2)nn1Cc1ccc(-c2ccccc2C(=O)OC)cc1 [Compound 8, 5-Hexyl-1,3-bis-[4-(2'-carbomethoxyphenyl)benzyl]mercapto-1,2,4-triazole] | 11 nM | 100% | – |
| CCCCCc1nc(SCc2ccc(-c3ccccc3C(=O)O)cc2)nn1Cc1ccc(-c2ccccc2C(=O)O)cc1 [Compound 6, 5-Pentyl-1,3-bis-[4-(2'-carboxyphenyl)benzyl]mercapto-1,2,4-triazole] | – | 100% | pA2 [1]: 8.39 |
| CCCCc1nc(Cl)c(CO)n1Cc1ccc(-c2ccccc2-c2nn[nH]n2)cc1 [DuP-753] | – | – | plasma renin activity (PRA) [2]: about 41.4 ng angiotensin I/mL plasma/h; blood pressure change ([3]; normotensive rats that have not been salt-depleted): does not change; blood pressure decrease (mean arterial pressure, MAP) ([3]; salt-depleted rats (furosemide, low sodium diet), typical response): about 35 mmHg |
| CCCCCCCc1nc(SCc2ccc(-c3ccccc3C(=O)O)cc2)nn1Cc1ccc(-c2ccccc2C(=O)O)cc1 [Compound 10, 5-Heptyl-1,3-bis-[4-(2'-carboxyphenyl)benzyl]mercapto-1,2,4-triazole] | 186 nM | 97% | – |
| CCCCCCCc1nc(SCc2ccc(-c3ccccc3C(=O)OC)cc2)nn1Cc1ccc(-c2ccccc2C(=O)OC)cc1 [Compound 9, 5-Heptyl-1,3-bis-[4-(2'-carbomethoxyphenyl)benzyl]mercapto-1,2,4-triazole] | – | 2% | – |

More lines, main results first:

| Kb [1] | inhibition at 10 µM [1] | Compound | also measured |
| --- | --- | --- | --- |
| – | 4% | CCCCCc1nc(SCc2ccc(-c3ccccc3C(=O)OC)cc2)n(Cc2ccc(-c3ccccc3C(=O)OC)cc2)n1 [Compound 21, 5-Pentyl-2,3-bis-[4-(2'-carbomethoxyphenyl)benzyl]mercapto-1,2,4-triazole] | – |
| 813 nM | 87% | CCCCCCCCc1nc(S(=O)(=O)Cc2ccc(-c3ccccc3C(=O)O)cc2)nn1Cc1ccc(-c2ccccc2C(=O)O)cc1 [Compound 38, 1-[(2'-Carboxyphenyl)benzyl]-3-[(2'-carboxyphenyl)benzylsulfonyl]-5-octyl-1,2,4-triazole hydrate] | – |
| – | 100% | CCCCCc1nc(SCc2ccc(-c3ccccc3C(=O)O)cc2)n(Cc2ccc(-c3ccccc3C(=O)O)cc2)n1 [Compound 23, 5-Pentyl-2,3-bis-[4-(2'-carboxyphenyl)benzyl]mercapto-1,2,4-triazole] | pA2 [1]: 7.19 |
| – | 1% | CCCCCCCc1nc(SCc2ccc(-c3ccccc3C(=O)OC)cc2)n(Cc2ccc(-c3ccccc3C(=O)OC)cc2)n1 [Compound 25, 5-Heptyl-2,3-bis-[4-(2'-carbomethoxyphenyl)benzyl]mercapto-1,2,4-triazole] | – |
| 10000 nM | – | CCCCCc1nc(SCc2ccc(-c3ccccc3C(=O)OC)cc2)nn1Cc1ccc(-c2ccccc2-c2nn[nH]n2)cc1 [Compound 16, 3-[4-(2'-Carbomethoxyphenyl)benzyl]mercapto-5-pentyl-1-[4-(2'-tetrazolophenyl)benzyl]-1,2,4-triazole hemihydrate] | – |
| – | 48% | CCCCCCCc1nc(SCc2ccc(-c3ccccc3C(=O)O)cc2)n(Cc2ccc(-c3ccccc3C(=O)O)cc2)n1 [Compound 26] | pA2 [1]: 5.88 |
| 8.91 nM | 100% | CCCCCCc1nc(S(=O)(=O)Cc2ccc(-c3ccccc3C(=O)O)cc2)nn1Cc1ccc(-c2ccccc2C(=O)O)cc1 [Compound 40, 1-[(2'-Carboxyphenyl)benzyl]-3-[(2'-carboxyphenyl)benzylsulfonyl]-5-hexyl-1,2,4-triazole 0.5 hydrate] | – |
| – | 79% | CCCCCc1nc(SCc2ccc(-c3ccccc3C#N)cc2)nn1Cc1ccc(-c2ccccc2C(=O)O)cc1 [Compound 12] | – |
| 324 nM | 89% | CCCCCCCc1nc(S(=O)(=O)Cc2ccc(-c3ccccc3C(=O)O)cc2)nn1Cc1ccc(-c2ccccc2C(=O)O)cc1 [Compound 39, 1-[(2'-Carboxyphenyl)benzyl]-3-[(2'-carboxyphenyl)benzylsulfonyl]-5-heptyl-1,2,4-triazole hydrate] | – |
